From paper PMC3746831 (Pharmaceutical research, 2013)
Like-named read-outs stand apart in the source and are kept apart here.

How the values were obtained:
[1] = Enzymatic hydrolysis in cornea homogenate; settings: 100 μM prodrug, 0.5mg/mL protein, 34°C
Akata cells = test: in vitro; assay type: cell-based, human
[2] = tested on: Epstein-Barr Virus (EBV), Akata; test: DNA hybridization assay for EBV in Akata cells; assay type: cell-based; settings: 72 h; for EC50: read-out: EBV EC50; for EC90: read-out: EBV EC90
[3] = Enzymatic hydrolysis in iris-ciliary body; settings: 100 μM prodrug, 34°C
[4] = tested on: Herpes Simplex Virus 2 (HSV-2), MS strain; test: Plaque reduction assay for HSV-2 in HFF cells; assay type: cell-based; settings: for EC50: read-out: HSV-2 EC50; for EC90: read-out: HSV-2 EC90
[5] = Enzymatic hydrolysis in lens homogenate; settings: 100 μM prodrug, 34°C
[6] = tested on: Herpes Simplex Virus 1 (HSV-1), E-377 strain; test: Plaque reduction assay for HSV-1 in HFF cells; assay type: cell-based; settings: for EC50: read-out: HSV-1 EC50; for EC90: read-out: HSV-1 EC90
HCEC cells = test: Cellular uptake study on HCEC cells; assay type: cell-based, human; settings: sodium free DPBS, 37°C, relative to uptake with sodium
[7] = tested on: Human Cytomegalovirus (HCMV), AD169 strain; test: Plaque reduction assay for HCMV in HFF cells; assay type: cell-based; settings: for EC50: read-out: HCMV EC50, control is GCV; for EC90: read-out: HCMV EC90, control is GCV
HFF cells = test: in vitro; assay type: cell-based, human
in vitro [8] = assay type: cell-based, human; settings: human
in vitro [9] = assay type: cell-based, human; settings: human; remark: listed apart in the source
[10] = Akata cells, viral DNA accumulation
[11] = human gammaherpesvirus 4, Akata

Row | Structure (SMILES) | Cornea Rate constant [1] | CC50 (Akata cells) [µM] | EC50 [2, 10] [µM] | EC90 [2, 10] [µM] | EC50 ([4]; MS strain, HFF cells) [µM] | EC90 ([4]; MS strain, HFF cells) [µM] | EC50 ([6]; E-377 strain, HFF cells) [µM] | EC90 ([6]; E-377 strain, HFF cells) [µM] | Uptake in the presence of a sodium free buffer (reduced to) (HCEC cells) [%] | EC50 [7] [µM] | EC90 [7] [µM] | CC50 (HFF cells) [µM] | CC50 (in vitro [9]) [µM] | also measured
1 | Nc1nc2c(ncn2COCCOC(=O)CCCC[C@@H]2SC[C@@H]3NC(=O)N[C@@H]32)c(=O)[nH]1 [B-ACV, Biotin-acyclovir] | 1.99 ± 0.21 k×10^3 min^−1 mg protein^-1 | > 60 | 22.3 | 52.8 | > 300 | > 300 | 182 | > 300 | ~45 |  |  |  |  | Cornea Half-life [1]: 5.80 ± 0.49 h; Degradation in ICB homogenate (in words) [3]: complete degradation; Degradation in lens homogenate (in words) [5]: complete degradation
2 | CCCCCCC(CCCCCCCCCCC(=O)OCCOCn1cnc2c(=O)[nH]c(N)nc21)OC(=O)CCCC[C@@H]1SC[C@@H]2NC(=O)N[C@@H]21 (stereo partly shown) [B-12HS-ACV, Biotin-12hydroxystearicacid-acyclovir] | 1.78 ± 0.29 k×10^3 min^−1 mg protein^-1 | > 60 | 37.2 | > 60 | < 0.096 | 4.65 | < 0.096 | 0.42 | ~41 | > 300 | > 300 | > 300 |  | 
3 | Nc1nc2c(ncn2COCCO)c(=O)[nH]1 [ACV, Acyclovir, reference compound] |  |  |  |  |  |  |  |  |  |  |  |  | > 100 | CC50 (in vitro [8]): > 100 µM; EC50 [2, 11]: 12.4 µM; EC90 [2, 11]: 67.3 µM; EC50 ([4]; Human alphaherpesvirus 2, HFF): 5.98 µM; EC90 ([4]; Human alphaherpesvirus 2, HFF): > 100 µM; EC50 ([6]; Human alphaherpesvirus 1, HFF): 3.43 µM; EC90 ([6]; Human alphaherpesvirus 1, HFF): > 100 µM; CC50 (HFF cells; human): > 100 µM
4 | Nc1nc(O)c2ncn(COC(CO)CO)c2n1 [GCV, Ganciclovir, reference compound] |  |  |  |  |  |  |  |  |  |  |  |  | > 100 | 
5 | CCCCCCC(O)CCCCCCCCCCC(=O)OCCOCn1cnc2c(=O)[nH]c(N)nc21 (stereo not shown) [12HS-ACV, 12hydroxystearicacid-acyclovir] |  | 47.3 | 35.8 | 55 | 0.41 | > 300 | 1.16 | 6.24 |  | 101 | 137 |  |  | Increase in antiviral activity against HSV-2 relative to ACV (by EC50) ([4]; from EC50 values): > 15 fold; Increase in antiviral activity against HSV-1 relative to ACV (by EC50) ([6]; from EC50 values): greater than 3 fold
6 | CCCCCCC(O)CC=CCCCCCCCC(=O)OCCOCn1cnc2c(=O)[nH]c(N)nc21 (stereo not shown) [R-ACV, Ricinoleicacid-acyclovir] |  | > 60 | 10.7 | 49.5 | 3.4 | 8.89 | 8.3 | 168 |  | 46.5 | > 300 | > 300 |  | 
